Source: US9249131B2, “Modulators of ATP-binding cassette transporters” (Vertex Pharmaceuticals Incorporated, priority 2003, dated 2016)

Biological target: T1, ΔF508-CFTR (Homo sapiens, UniProt P13569, DEL508-508)
T1 construct: expressed in transfected cells; host or cells: NIH3T3 mouse fibroblasts stably expressing ΔF508-CFTR for the optical, whole-cell and single-channel assays; Fisher rat epithelial (FRT) cells for Ussing chamber follow-up
Assay: Assays for ΔF508-CFTR correction and potentiator properties (membrane potential optical and electrophysiological methods)
Format: cell-based
Conditions: CFTR modulation; for % Activity: % Efficacy; for EC50: tested using the above methods
In short: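 NIH3T3 mouse fibroblasts stably expressing ΔF508-CFTR were used, with membrane potential read by DiSBAC2(3)/CC2-DMPE FRET on VIPR. Correctors: 16 h compound exposure at 37 °C, then activation with forskolin plus genistein in Cl⁻-free medium. Potentiators: cells held 24 h at 27 °C, compound added in Cl⁻-free medium, 2-10 μM forskolin 22 s later (final Cl⁻ 28 mM).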

T1 sequence (P13569 with tags, fused parts or gaps DEL508-508): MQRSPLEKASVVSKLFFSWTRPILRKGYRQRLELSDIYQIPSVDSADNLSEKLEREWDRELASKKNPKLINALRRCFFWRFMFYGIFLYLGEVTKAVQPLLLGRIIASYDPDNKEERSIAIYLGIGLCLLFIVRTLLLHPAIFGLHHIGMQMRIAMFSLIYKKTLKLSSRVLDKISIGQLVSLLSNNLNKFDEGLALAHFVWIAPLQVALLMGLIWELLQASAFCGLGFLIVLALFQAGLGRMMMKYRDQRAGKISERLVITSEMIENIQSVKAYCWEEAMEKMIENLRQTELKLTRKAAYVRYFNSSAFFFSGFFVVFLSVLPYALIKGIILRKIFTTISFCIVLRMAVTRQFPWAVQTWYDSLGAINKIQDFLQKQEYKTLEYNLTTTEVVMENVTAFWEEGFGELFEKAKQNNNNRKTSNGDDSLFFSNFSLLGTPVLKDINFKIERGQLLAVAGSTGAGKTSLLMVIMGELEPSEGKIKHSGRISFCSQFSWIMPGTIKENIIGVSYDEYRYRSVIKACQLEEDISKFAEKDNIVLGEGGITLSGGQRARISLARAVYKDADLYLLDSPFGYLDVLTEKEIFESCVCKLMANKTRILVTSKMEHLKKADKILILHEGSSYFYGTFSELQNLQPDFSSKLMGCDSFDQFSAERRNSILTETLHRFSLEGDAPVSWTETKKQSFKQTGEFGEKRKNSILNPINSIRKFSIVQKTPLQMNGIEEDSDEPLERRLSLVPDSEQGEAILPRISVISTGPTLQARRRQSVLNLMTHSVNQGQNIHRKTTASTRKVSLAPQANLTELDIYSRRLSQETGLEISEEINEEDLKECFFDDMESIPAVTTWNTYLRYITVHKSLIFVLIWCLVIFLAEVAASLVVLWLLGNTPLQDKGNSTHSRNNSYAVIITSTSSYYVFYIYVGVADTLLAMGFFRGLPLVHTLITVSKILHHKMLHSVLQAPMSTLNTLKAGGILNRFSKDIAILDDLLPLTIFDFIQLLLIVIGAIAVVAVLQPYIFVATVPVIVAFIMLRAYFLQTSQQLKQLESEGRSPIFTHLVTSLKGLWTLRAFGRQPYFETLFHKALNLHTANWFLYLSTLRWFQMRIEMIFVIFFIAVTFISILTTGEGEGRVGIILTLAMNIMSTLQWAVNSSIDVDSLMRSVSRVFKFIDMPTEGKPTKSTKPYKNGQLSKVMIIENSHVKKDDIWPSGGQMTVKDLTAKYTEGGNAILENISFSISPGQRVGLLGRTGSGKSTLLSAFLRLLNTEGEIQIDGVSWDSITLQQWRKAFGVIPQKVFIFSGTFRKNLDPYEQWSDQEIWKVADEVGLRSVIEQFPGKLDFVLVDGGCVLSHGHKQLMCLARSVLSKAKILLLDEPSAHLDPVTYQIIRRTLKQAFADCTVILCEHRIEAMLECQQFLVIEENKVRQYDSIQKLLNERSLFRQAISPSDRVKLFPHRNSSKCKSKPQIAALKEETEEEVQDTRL

| Structure (SMILES) | % Activity | EC50 [µM] |
| --- | --- | --- |
| O=C(Nc1ncc(Cc2ccccc2)s1)C(c1ccccc1)C1CCCCC1 (stereo not shown) [compound 139] | ++ (“++” means between 25% to 100%) | < 10 |
| COc1ccccc1Cc1cnc(NC(=O)C2c3ccccc3Oc3ccccc32)s1 [compound 140] | ++ (“++” means between 25% to 100%) | < 10 |
| O=C(Nc1ncc(Cc2ccccc2)o1)c1ccccc1 [compound 141] | ++ (“++” means between 25% to 100%) | 10 to 25 |
| O=C(Nc1ncc(Cc2ccc(Cl)cc2)o1)C(c1ccccc1)C1CCCCC1 (stereo not shown) [compound 142] | ++ (“++” means between 25% to 100%) | < 10 |
| O=C(Nc1ncc(Cc2ccc(Cl)cc2)o1)C(c1ccccc1)c1ccccc1 [compound 143] | ++ (“++” means between 25% to 100%) | 25 to 60 |
| O=C(Nc1ncc(Cc2ccc(Cl)cc2)o1)C1Cc2ccccc21 (stereo not shown) [compound 145] | ++ (“++” means between 25% to 100%) | 10 to 25 |
| CCC(C(=O)Nc1ncc(Cc2ccc(Cl)cc2)o1)c1ccccc1 (stereo not shown) [compound 146] | ++ (“++” means between 25% to 100%) | < 10 |
| CCC(C)C(C(=O)Nc1ncc(Cc2ccc(Cl)cc2)o1)c1ccccc1 (stereo not shown) [compound 147] | ++ (“++” means between 25% to 100%) | < 10 |
| O=C(Nc1ncc(Cc2ccc(Cl)cc2)o1)C(c1ccccc1)C1CCCC1 (stereo not shown) [compound 148] | ++ (“++” means between 25% to 100%) | < 10 |
| O=C(Cc1ccccc1)Nc1ncc(Cc2ccc(Cl)cc2)o1 [compound 149] | ++ (“++” means between 25% to 100%) | 10 to 25 |
| O=C(Nc1ncc(Cc2ccc(Cl)cc2)o1)c1ccccc1 [compound 150] | ++ (“++” means between 25% to 100%) | 10 to 25 |
| O=C(Nc1ncc(Cc2cccc(Cl)c2)o1)C(c1ccccc1)C1CCCCC1 (stereo not shown) [compound 151] | ++ (“++” means between 25% to 100%) | < 10 |
| O=C(Nc1ncc(Cc2cccc(Cl)c2)o1)C1Cc2ccccc21 (stereo not shown) [compound 152] | ++ (“++” means between 25% to 100%) | 10 to 25 |
| CC(C(=O)Nc1ncc(Cc2cccc(Cl)c2)o1)c1ccccc1 (stereo not shown) [compound 153] | ++ (“++” means between 25% to 100%) | < 10 |
| CCC(C(=O)Nc1ncc(Cc2cccc(Cl)c2)o1)c1ccccc1 (stereo not shown) [compound 154] | ++ (“++” means between 25% to 100%) | < 10 |
| CCC(C)C(C(=O)Nc1ncc(Cc2cccc(Cl)c2)o1)c1ccccc1 (stereo not shown) [compound 155] | ++ (“++” means between 25% to 100%) | < 10 |
| O=C(Nc1ncc(Cc2cccc(Cl)c2)o1)C(c1ccccc1)C1CCCC1 (stereo not shown) [compound 156] | ++ (“++” means between 25% to 100%) | < 10 |
| O=C(Cc1ccccc1)Nc1ncc(Cc2cccc(Cl)c2)o1 [compound 157] | ++ (“++” means between 25% to 100%) | < 10 |
| O=C(Nc1ncc(Cc2cccc(Cl)c2)o1)c1ccccc1 [compound 158] | ++ (“++” means between 25% to 100%) |  |
| O=C(Nc1nc(-c2ccccc2Cl)cs1)c1ccccc1 [compound 159] | ++ (“++” means between 25% to 100%) | < 10 |

| Structure (SMILES) | % Activity | EC50 [µM] |
| --- | --- | --- |
| O=C(Nc1nc(-c2cccc(Cl)c2)cs1)c1ccccc1 [compound 160] | +++ (“+++” means >100%) | 10 to 25 |
| N#Cc1ccc(-c2csc(NC(=O)c3ccccc3)n2)cc1 [compound 161] | ++ (“++” means between 25% to 100%) | 25 to 60 |
| COc1ccc(-c2csc(NC(=O)c3ccccc3)n2)c(OC)c1 [compound 162] | ++ (“++” means between 25% to 100%) | 25 to 60 |
| O=C(Nc1nc(-c2ccc(N3CCCC3)cc2)cs1)c1ccccc1 [compound 163] | ++ (“++” means between 25% to 100%) | 10 to 25 |
| O=C(Nc1nc(-c2ccc3c(c2)OCO3)cs1)c1ccccc1 [compound 164] | ++ (“++” means between 25% to 100%) | 10 to 25 |
| O=C(Nc1nc(-c2ccc(Cl)cc2)c(-c2ccccc2)s1)c1ccccc1 [compound 165] | +++ (“+++” means >100%) | < 10 |
| CC(C(=O)Nc1nc(-c2ccccc2)cs1)c1ccccc1 (stereo not shown) [compound 166] | ++ (“++” means between 25% to 100%) | 10 to 25 |
| CCC(C(=O)Nc1nc(-c2ccccc2)cs1)c1ccccc1 (stereo not shown) [compound 167] | ++ (“++” means between 25% to 100%) | < 10 |
| CC(C)C(C(=O)Nc1nc(-c2ccccc2)cs1)c1ccccc1 (stereo not shown) [compound 168] | ++ (“++” means between 25% to 100%) | < 10 |
| O=C(Nc1nc(-c2ccccc2)cs1)C(c1ccccc1)C1CCCC1 (stereo not shown) [compound 169] | ++ (“++” means between 25% to 100%) | < 10 |
| CCC(C)C(C(=O)Nc1nc(-c2ccccc2)cs1)c1ccccc1 (stereo not shown) [compound 170] | ++ (“++” means between 25% to 100%) | < 10 |
| COC(=O)c1ccccc1C(=O)Nc1nc(-c2ccccc2)cs1 [compound 171] | ++ (“++” means between 25% to 100%) | < 10 |
| CC(C(=O)Nc1nc(-c2ccccc2)c(-c2ccccc2)s1)c1ccccc1 (stereo not shown) [compound 172] | +++ (“+++” means >100%) | < 10 |
| CCC(C(=O)Nc1nc(-c2ccccc2)c(-c2ccccc2)s1)c1ccccc1 (stereo not shown) [compound 173] | ++ (“++” means between 25% to 100%) | < 10 |
| CC(C)C(C(=O)Nc1nc(-c2ccccc2)c(-c2ccccc2)s1)c1ccccc1 (stereo not shown) [compound 174] | ++ (“++” means between 25% to 100%) | < 10 |
| O=C(Nc1nc(-c2ccccc2)c(-c2ccccc2)s1)C(c1ccccc1)C1CCCC1 (stereo not shown) [compound 175] | ++ (“++” means between 25% to 100%) | < 10 |
| CCC(C)C(C(=O)Nc1nc(-c2ccccc2)c(-c2ccccc2)s1)c1ccccc1 (stereo not shown) [compound 176] | ++ (“++” means between 25% to 100%) | < 10 |
| O=C(Nc1nc(-c2ccccc2)c(-c2ccccc2)s1)C(c1ccccc1)C1CCCCC1 (stereo not shown) [compound 177] | ++ (“++” means between 25% to 100%) | 10 to 25 |
| COC(=O)c1ccccc1C(=O)Nc1nc(-c2ccccc2)c(-c2ccccc2)s1 [compound 178] | +++ (“+++” means >100%) | < 10 |
| COc1ccccc1Cc1cnc(NC(=O)C(c2ccccc2)C2CCCCC2)o1 (stereo not shown) [compound 179] | ++ (“++” means between 25% to 100%) | 10 to 25 |

| Structure (SMILES) | % Activity | EC50 [µM] |
| --- | --- | --- |
| COc1ccccc1Cc1cnc(NC(=O)C(c2ccccc2)c2ccccc2)o1 [compound 180] | ++ (“++” means between 25% to 100%) | 10 to 25 |
| COc1ccccc1Cc1cnc(NC(=O)C2Cc3ccccc32)o1 (stereo not shown) [compound 181] | ++ (“++” means between 25% to 100%) | 25 to 60 |
| COc1ccccc1Cc1cnc(NC(=O)C(C)c2ccccc2)o1 (stereo not shown) [compound 182] | ++ (“++” means between 25% to 100%) | 25 to 60 |
| CCC(C(=O)Nc1ncc(Cc2ccccc2OC)o1)c1ccccc1 (stereo not shown) [compound 183] | ++ (“++” means between 25% to 100%) | 25 to 60 |
| CCC(C)C(C(=O)Nc1ncc(Cc2ccccc2OC)o1)c1ccccc1 (stereo not shown) [compound 184] | ++ (“++” means between 25% to 100%) | 10 to 25 |
| COc1ccccc1Cc1cnc(NC(=O)c2ccccc2)o1 [compound 185] | ++ (“++” means between 25% to 100%) | 10 to 25 |
| O=C(Nc1ncc(Cc2ccccc2Cl)o1)C(c1ccccc1)C1CCCCC1 (stereo not shown) [compound 186] | ++ (“++” means between 25% to 100%) | 10 to 25 |
| O=C(Nc1ncc(Cc2ccccc2Cl)o1)C(c1ccc(Cl)cc1)c1ccc(Cl)cc1 [compound 187] | ++ (“++” means between 25% to 100%) | 10 to 25 |
| O=C(Nc1ncc(Cc2ccccc2Cl)o1)C1Cc2ccccc21 (stereo not shown) [compound 188] | ++ (“++” means between 25% to 100%) | 25 to 60 |
| CC(C(=O)Nc1ncc(Cc2ccccc2Cl)o1)c1ccccc1 (stereo not shown) [compound 189] | ++ (“++” means between 25% to 100%) | 25 to 60 |
| CCC(C(=O)Nc1ncc(Cc2ccccc2Cl)o1)c1ccccc1 (stereo not shown) [compound 190] | ++ (“++” means between 25% to 100%) | 25 to 60 |
| CCC(C)C(C(=O)Nc1ncc(Cc2ccccc2Cl)o1)c1ccccc1 (stereo not shown) [compound 191] | ++ (“++” means between 25% to 100%) | < 10 |
| O=C(Nc1ncc(Cc2ccccc2Cl)o1)C(c1ccccc1)C1CCCC1 (stereo not shown) [compound 192] | ++ (“++” means between 25% to 100%) | 10 to 25 |
| CC(C)C(C(=O)Nc1ncc(Cc2ccccc2Cl)o1)c1ccccc1 (stereo not shown) [compound 193] | ++ (“++” means between 25% to 100%) | 10 to 25 |
| O=C(Cc1ccccc1)Nc1ncc(Cc2ccccc2Cl)o1 [compound 194] | ++ (“++” means between 25% to 100%) | 25 to 60 |
| O=C(Nc1ncc(Cc2ccccc2Cl)o1)c1ccccc1 [compound 195] | ++ (“++” means between 25% to 100%) | < 10 |
| COc1ccc(S(=O)(=O)N2CCN(C(C)C(=O)Nc3nc(-c4ccccc4)c(-c4ccccc4)s3)CC2)cc1 (stereo not shown) [compound 196] | ++ (“++” means between 25% to 100%) | < 10 |
| CC(C(=O)Nc1nc(-c2ccccc2)c(-c2ccccc2)s1)N1CCN(S(=O)(=O)c2ccc(Cl)cc2)CC1 (stereo not shown) [compound 197] | ++ (“++” means between 25% to 100%) | < 10 |
